Here are results for eleven compounds from US20210380548A1, “Fused [1,2,4]Thiadiazine Derivatives Which Act as KAT Inhibitors of the MYST Family” (CTxT Pty Limited, priority 2017, published 2021).

The target in assay [1] is T1, TIP60-KAT5 (Homo sapiens, UniProt Q92993).
T1 construct: encoding amino acid residues 2 to 461 (Uniprot Q92993-2) of human KAT5 isoform; made in house; host or cells: E. coli BL21 DE3
In words: Acetyltransferase biochemical assay (AlphaScreen), KAT5. The following applies: Table 1 (TIP60-KAT5); 0.4 μM Acetyl coenzyme A, histone H4, 10 nM enzyme.

Assay [2] has as its target T2, MOZ-KAT6A (Homo sapiens, UniProt Q92794, A567V).
T2 construct: encoding amino acid residues 507 to 778 (Uniprot Q92794-1) of human KAT6A; made in house; host or cells: E. coli BL21 DE3
As to the kind of experiment: Acetyltransferase biochemical assay (AlphaScreen), KAT6A. The following applies: Table 2 (MOZ-KAT6A); 10 μM Acetyl coenzyme A, histone H3.1, 5 nM enzyme. On the technique in general: Bead proximity is the source of the signal in Alpha formats.

Assay [3] deals with T2, MOZ-KAT6A. In words: Revised Acetyltransferase Biochemical Assay, KAT6A. The note with it: Table 8 (MOZ-KAT6A), 1 μM Acetyl coenzyme A.
Assay [4] has as its target T3, HBO-KAT7 (Homo sapiens, UniProt O95251).
T3 construct: encoding amino acid residues 325 to 611 (Uniprot 095251-1) of human KAT7; made in house; host or cells: E. coli BL21 DE3 RIL
As to the kind of experiment: Revised Acetyltransferase Biochemical Assay, KAT7. The following applies: Table 9 (HBO-KAT7), 1 μM Acetyl coenzyme A.

Assay [5] concerns the target T1, TIP60-KAT5. In words: Revised Acetyltransferase Biochemical Assay, KAT5. The following applies: 10 nM KAT5, 1 μM AcCoA, 100 nM histone H4, 90 min.
Another assay deals with T4, QKF-KAT6B (Homo sapiens, UniProt Q8WYB5).
T4 construct: purchased SignalChem K315-381BG
In words: Revised Acetyltransferase Biochemical Assay, KAT6B. The following applies: 8 nM KAT6B, 1 μM AcCoA, 100 nM histone H3.1, 90 min. An excerpt:
KAT6B was obtained from SignalChem, catalog ID: K315-381BG

Assay [6] has as its system histone H3K23 acetylation (KATE mediated) in U2OS cells. In words: Histone H3 Lysine 23 Acetylation Biomarker Assay (U2OS). Type of assay: cell-based. The note with it: 96 well, 24 hours incubation. How it is done:
Compounds may be tested for their ability to inhibit acetylation of the histone H3K23 marker, which is KATE mediated, in the following assay:
The cell line U2OS was seeded at a density of 9,000 cells per well in 96 well optical quality tissue culture plates in RPMI medium and 10% foetal bovine serum, and allowed to adhere for 24 hours under standard culture conditions (37 degree Celsius, 5% CO2). At the end of this period the medium was aspirated. Compound dilutions prepared in DMSO were added to medium, with negative control wells reserved for treatment with DMSO only and 100% inhibition positive controls receiving a potent inhibitor compound (e.g. cas 2055397-28-7, benzoic acid, 3-fluoro-5-(2-pyridinyl)-, 2-[(2-fluorophenyl)sulfonyl]hydrazide) (Baell, J., Nguyen, H. N., Leaver, D. J., Cleary, B. L., Lagiakos, H. R., Sheikh, B. N., Thomas. T. J., Aryl sulfonohydrazides, WO2016198507A1, 2016) at 10 μM concentration and 200 μL transferred to the cells. After incubation for 24 hours, the cells were fixed with 3.7% formaldehyde in PBS for 20 minutes at room temperature, washed (5×5 minutes) with phosphate buffer saline containing 0.1% Tween 20 and blocked with Odyssey blocking buffer (LI-COR, Lincoln, Nebr.) containing 0.1% TritonX100. Anti-H3K23ac specific antibody (Abcam ab177275) in Odyssey blocking buffer containing 0.1% Tween 20 was added and incubated for 16 hours at 4 degree Celsius. After washing (as above), a secondary antibody labelled with Alexa647 dye (LifeTechnologies) and Hoechst 33342 (1 μg/mL, SigmaAldrich) were added for 1 hour incubation. Plates were washed as previously and read on a PerkinElmer Phenix high content imaging platform. Using a Columbus image analysis pipeline, individual nuclei were located by Hoechst 33342 stain and the acetylation level was calculated from the Alexa647-related intensity in the same area. The resulting mean intensity per cell was directly converted to percent inhibition relative to controls on the same plate and the data fitted against a four-parameter logistic model to determine the 50% inhibitory concentration (IC50).

The target in assay [7] is T5, MOF-KAT8 (Homo sapiens, UniProt Q9H7Z6).
T5 sequence (Q9H7Z6 177-447): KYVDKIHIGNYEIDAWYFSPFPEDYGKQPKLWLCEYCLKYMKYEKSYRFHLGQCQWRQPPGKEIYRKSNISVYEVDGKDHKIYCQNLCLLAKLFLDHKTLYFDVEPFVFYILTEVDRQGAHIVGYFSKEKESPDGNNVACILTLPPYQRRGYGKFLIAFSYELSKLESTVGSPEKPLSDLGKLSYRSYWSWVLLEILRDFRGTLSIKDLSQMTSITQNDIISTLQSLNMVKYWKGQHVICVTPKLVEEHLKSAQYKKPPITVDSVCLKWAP
In words: Revised Acetyltransferase Biochemical Assay, KAT8.

The target of assay [8] is T3, HBO-KAT7. As to the kind of experiment: Acetyltransferase biochemical assay (AlphaScreen), KAT7. The note with it: Table 3 (HBO-KAT7); 0.4 μM Acetyl coenzyme A, histone H3.1, 40 nM enzyme.
The target of assay [9] is T5, MOF-KAT8. In words: Acetyltransferase biochemical assay (AlphaScreen), KAT8. The note with it: Table 4 (MOF-KAT8); 0.4 μM Acetyl coenzyme A, histone H4, 20 nM enzyme.
Assay [10] relates to histone H3 Lysine 14 acetylation (HBO1 mediated) in U2OS cells. In words: Histone H3 Lysine 14 Acetylation Biomarker Assay (384-well, U2OS). Type of assay: cell-based. The note with it: Homo sapiens, serum free medium, 24 hours incubation. The gist of the method: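 U2OS cells in serum-free medium treated with compound 24 h; DMSO and 10 μM reference inhibitor as 0% and 100% controls. Fixed cells immunostained for H3K14ac (AlexaFluor 488) with Hoechst nuclear mask, imaged by high-content analysis; per-cell intensity converted to % inhibition, IC50 by four-parameter logistic fit.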

The test system of assay [11] is histone H2A.Z Lysine 7 acetylation (TIP60 mediated) in U2OS cells. As to the kind of experiment: H2A.Z Lysine 7 Acetylation Biomarker Assay (384-well, U2OS). Format: cell-based. The note with it: Homo sapiens, serum free medium, 24 hours incubation. The gist of the method:
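U2OS cells (3,000/well) were treated with compound for 24 h after a serum-free wash, then fixed. They were stained with anti-H2A.ZK7ac, an AlexaFluor 488 secondary and Hoechst. High-content imaging gave mean nuclear intensity per cell, converted to percent inhibition against on-plate controls, and IC50 came from a four-parameter logistic fit.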

Some results are limits rather than exact numbers.

T3 sequence (O95251 with tags, fused parts or gaps): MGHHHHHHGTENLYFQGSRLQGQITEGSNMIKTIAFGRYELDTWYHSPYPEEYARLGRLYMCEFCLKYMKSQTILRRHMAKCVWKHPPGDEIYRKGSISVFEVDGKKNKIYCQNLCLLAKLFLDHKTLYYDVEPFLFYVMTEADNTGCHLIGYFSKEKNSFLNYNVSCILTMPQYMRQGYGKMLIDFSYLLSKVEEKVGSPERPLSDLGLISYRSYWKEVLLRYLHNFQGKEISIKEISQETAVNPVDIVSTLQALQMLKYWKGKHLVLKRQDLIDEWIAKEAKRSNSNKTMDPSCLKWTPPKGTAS
T1 sequence (Q92993 2-461 isoform Q92993-2): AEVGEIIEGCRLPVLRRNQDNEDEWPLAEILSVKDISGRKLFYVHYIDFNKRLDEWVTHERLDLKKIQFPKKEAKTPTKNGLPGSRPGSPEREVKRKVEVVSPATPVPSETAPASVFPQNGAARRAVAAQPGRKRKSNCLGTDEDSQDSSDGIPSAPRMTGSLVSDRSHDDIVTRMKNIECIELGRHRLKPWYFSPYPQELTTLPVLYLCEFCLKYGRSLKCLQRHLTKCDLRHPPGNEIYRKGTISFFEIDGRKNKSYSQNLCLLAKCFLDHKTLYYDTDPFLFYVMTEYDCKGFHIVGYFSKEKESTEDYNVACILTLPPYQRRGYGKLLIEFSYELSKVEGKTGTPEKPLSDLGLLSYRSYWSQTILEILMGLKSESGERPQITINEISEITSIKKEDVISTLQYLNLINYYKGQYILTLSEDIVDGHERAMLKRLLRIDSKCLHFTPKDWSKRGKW
T4 sequence (Q8WYB5 whole entry): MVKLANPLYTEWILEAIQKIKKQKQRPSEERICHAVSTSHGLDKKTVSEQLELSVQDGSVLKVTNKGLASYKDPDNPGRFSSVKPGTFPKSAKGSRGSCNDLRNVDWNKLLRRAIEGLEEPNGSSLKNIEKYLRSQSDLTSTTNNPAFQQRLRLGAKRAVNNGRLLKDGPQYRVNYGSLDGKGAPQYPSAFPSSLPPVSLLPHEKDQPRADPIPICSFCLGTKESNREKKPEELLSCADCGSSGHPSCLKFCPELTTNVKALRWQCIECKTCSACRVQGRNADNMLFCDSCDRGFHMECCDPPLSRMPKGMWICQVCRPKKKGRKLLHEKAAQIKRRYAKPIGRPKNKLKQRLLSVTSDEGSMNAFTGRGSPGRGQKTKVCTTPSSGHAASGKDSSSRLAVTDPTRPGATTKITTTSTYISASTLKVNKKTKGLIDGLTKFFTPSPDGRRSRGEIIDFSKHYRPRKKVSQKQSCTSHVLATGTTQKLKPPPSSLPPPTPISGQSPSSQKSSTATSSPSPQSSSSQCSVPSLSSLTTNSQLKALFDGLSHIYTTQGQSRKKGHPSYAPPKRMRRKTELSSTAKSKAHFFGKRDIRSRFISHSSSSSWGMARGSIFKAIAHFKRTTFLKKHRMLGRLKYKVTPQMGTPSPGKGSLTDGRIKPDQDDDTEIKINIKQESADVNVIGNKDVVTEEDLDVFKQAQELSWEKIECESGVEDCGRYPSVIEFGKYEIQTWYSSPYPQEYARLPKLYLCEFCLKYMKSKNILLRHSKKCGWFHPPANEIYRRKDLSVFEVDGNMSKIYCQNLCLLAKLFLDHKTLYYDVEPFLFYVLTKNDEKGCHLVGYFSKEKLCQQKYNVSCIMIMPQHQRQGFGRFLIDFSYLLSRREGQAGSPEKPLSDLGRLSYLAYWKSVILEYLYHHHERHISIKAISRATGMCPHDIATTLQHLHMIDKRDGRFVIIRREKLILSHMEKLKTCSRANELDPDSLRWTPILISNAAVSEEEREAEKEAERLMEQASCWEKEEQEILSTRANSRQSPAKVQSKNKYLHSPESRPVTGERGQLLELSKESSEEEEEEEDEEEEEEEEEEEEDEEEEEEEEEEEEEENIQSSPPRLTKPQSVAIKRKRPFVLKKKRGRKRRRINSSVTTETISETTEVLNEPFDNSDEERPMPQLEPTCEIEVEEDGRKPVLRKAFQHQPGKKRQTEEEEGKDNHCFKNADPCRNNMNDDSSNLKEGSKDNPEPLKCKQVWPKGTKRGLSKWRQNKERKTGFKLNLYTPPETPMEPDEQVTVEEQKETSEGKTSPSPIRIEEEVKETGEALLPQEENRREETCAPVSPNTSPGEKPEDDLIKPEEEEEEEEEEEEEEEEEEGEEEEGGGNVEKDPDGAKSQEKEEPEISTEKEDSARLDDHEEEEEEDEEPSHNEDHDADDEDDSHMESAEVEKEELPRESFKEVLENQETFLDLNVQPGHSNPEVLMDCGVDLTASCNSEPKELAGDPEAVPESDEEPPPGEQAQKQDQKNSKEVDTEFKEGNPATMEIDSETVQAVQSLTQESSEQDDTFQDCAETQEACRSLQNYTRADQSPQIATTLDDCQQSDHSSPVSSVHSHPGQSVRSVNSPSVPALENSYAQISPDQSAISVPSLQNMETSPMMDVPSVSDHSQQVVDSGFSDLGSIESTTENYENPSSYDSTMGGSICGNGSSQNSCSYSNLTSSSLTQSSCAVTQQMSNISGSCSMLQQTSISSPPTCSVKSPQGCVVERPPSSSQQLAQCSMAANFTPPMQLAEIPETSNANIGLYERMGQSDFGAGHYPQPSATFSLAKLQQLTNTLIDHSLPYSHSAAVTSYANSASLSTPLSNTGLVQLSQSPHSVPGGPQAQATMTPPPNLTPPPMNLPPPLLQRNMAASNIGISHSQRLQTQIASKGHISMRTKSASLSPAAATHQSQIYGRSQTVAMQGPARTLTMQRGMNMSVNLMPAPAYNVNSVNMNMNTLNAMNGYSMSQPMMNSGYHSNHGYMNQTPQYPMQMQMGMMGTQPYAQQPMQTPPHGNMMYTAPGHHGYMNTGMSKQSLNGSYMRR
T2 sequence (Q92794 507-778 A567V limits assumed): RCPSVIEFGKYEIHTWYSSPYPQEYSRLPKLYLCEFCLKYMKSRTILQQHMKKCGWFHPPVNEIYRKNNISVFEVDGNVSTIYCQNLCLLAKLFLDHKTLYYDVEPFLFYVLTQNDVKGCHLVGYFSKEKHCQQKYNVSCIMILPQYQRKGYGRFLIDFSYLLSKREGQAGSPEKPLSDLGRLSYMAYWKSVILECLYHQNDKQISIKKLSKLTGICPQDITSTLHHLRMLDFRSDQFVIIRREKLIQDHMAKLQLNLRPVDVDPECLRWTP

On to `O=C(NCC(c1ccccc1)c1ncco1)C1=Nc2ccc(F)cc2S(=O)(=O)N1` (single isomer, unassigned) [Example 144], for which the concentration for half-maximal inhibition (IC50) (commonly the point on the concentration scale where inhibition reaches its midpoint) at TIP60-KAT5 [1] stood at 1.65 µM; at MOZ-KAT6A [2], 0.12 µM; against MOZ-KAT6A [3], 0.021 µM; on HBO-KAT7 [4] it was 1.39 µM; at TIP60-KAT5 [5], 1.06 µM; against QKF-KAT6B it was 0.459 µM. For the same compound, the IC50 in assay [6] stood at 0.104 µM; on MOF-KAT8 [7] (read-out: IC50 (MOF-KAT8), Revised acetyltransferase biochemical assay, 20 nM KAT8, 1 μM AcCoA, 100 nM histone H4, 90 min), 46.7 µM.
For `COCc1ccccc1CCNC(=O)C1=Nc2ccc(I)cc2S(=O)(=O)N1` [Example 14, 7-Iodo-N-(2-(methoxymethyl)phenethyl)-2H-benzo[e][1,2,4]thiadiazine-3-carboxamide 1,1-dioxide], the IC50 against TIP60-KAT5 [1] turned out to be 2.36 µM; against HBO-KAT7 [8], 1.78 µM; against MOZ-KAT6A [3] it was 0.01 µM; at HBO-KAT7 [4] it was 0.083 µM; against TIP60-KAT5 [5] it was 0.156 µM; on QKF-KAT6B, 0.058 µM. The IC50 was 1.06 µM in assay [6] (Homo sapiens) and 37.8 µM against MOF-KAT8 [7].
For the compound `Cn1cc(-c2ccc3c(c2)S(=O)(=O)NC(C(=O)NCC(c2ccccc2)c2ncco2)=N3)cn1` (stereo not shown) [Example 25, 7-(1-Methyl-1H-pyrazol-4-yl)-N-(2-(oxazol-2-yl)-2-phenylethyl)-2H-benzo[e][1,2,4]thiadiazine-3-carboxamide 1,1-dioxide], the IC50 amounted to 6.89 µM against TIP60-KAT5 [1]; 0.0512 µM at MOZ-KAT6A [2]; 1.93 µM against HBO-KAT7 [8]; 78.2 µM at MOF-KAT8 [9]; 0.064 µM on MOZ-KAT6A [3]; 12 µM on HBO-KAT7 [4]. Moreover, the IC50 at TIP60-KAT5 [5] is 5.91 µM; at QKF-KAT6B, 0.61 µM; in assay [6] (Homo sapiens), 3.82 µM; at MOF-KAT8 [7], greater than 125 µM.
With `O=C(NCC(c1ccccc1)c1ncco1)C1=Nc2ccc(-c3cn[nH]c3)cc2S(=O)(=O)N1` (stereo not shown) [Example 26, N-(2-(Oxazol-2-yl)-2-phenylethyl)-7-(1H-pyrazol-4-yl)-2H-benzo[e][1,2, 4]thiadiazine-3-carboxamide 1,1-dioxide], the IC50 on TIP60-KAT5 [1] stood at 1.66 µM; against MOZ-KAT6A [2], 0.0287 µM; against HBO-KAT7 [8], 1.48 µM; on MOF-KAT8 [9], 23.7 µM; against MOZ-KAT6A [3] it was 0.041 µM; against HBO-KAT7 [4] it was 5.07 µM. Also, the IC50 was determined as 5.94 µM against TIP60-KAT5 [5], 0.12 µM on QKF-KAT6B, 1.08 µM in assay [6] (Homo sapiens) and 39.9 µM against MOF-KAT8 [7].
Take `CNC(=O)c1ccc2c(c1)S(=O)(=O)NC(C(=O)NCC(c1ccccc1)c1ncco1)=N2` (stereo not shown) [Example 32, N^7-Methyl-N^3-(2-(oxazol-2-yl)-2-phenylethyl)-2H-benzo[e][1,2,4]thiadiazine-3,7-dicarboxamide 1,1-dioxide]: the IC50 against TIP60-KAT5 [1] came out at 5.04 µM; at MOZ-KAT6A [2], 0.0498 µM; at HBO-KAT7 [8], 4.64 µM; at MOF-KAT8 [9], 74.1 µM; against MOZ-KAT6A [3], 0.03 µM; on HBO-KAT7 [4], 0.356 µM. In addition, the IC50 at TIP60-KAT5 [5] was 5.33 µM; against QKF-KAT6B it was 0.155 µM; in [6] (Homo sapiens) it was greater than 10 µM; against MOF-KAT8 [7] it was greater than 125 µM.
On to `O=C(NCC(c1ccccc1)c1ncc[nH]1)C1=Nc2ccccc2S(=O)(=O)N1` (stereo not shown) [Example 113], for which the IC50 on TIP60-KAT5 [1] was greater than 125 µM; at MOZ-KAT6A [3] it was 99 µM; against HBO-KAT7 [4], 6.41 µM; at TIP60-KAT5 [5] it was greater than 125 µM; on QKF-KAT6B, greater than 125 µM; in assay [6] (Homo sapiens), greater than 10 µM. On MOF-KAT8 [7], this compound registered an IC50 greater than 125 µM.
As for `O=C(NCCC1CCCCC1)C1=Nc2ccc(-c3c[nH]nn3)cc2S(=O)(=O)N1` [Example 201], the half-maximal inhibitory concentration (IC50) against MOZ-KAT6A [3] is 0.268 µM; against HBO-KAT7 [4] it was 56.5 µM; against TIP60-KAT5 [5] it was 43.7 µM; against QKF-KAT6B, 5.26 µM; in assay [10] it was greater than 40 µM; in assay [11], greater than 40 µM. The IC50 in assay [6] (Homo sapiens) is greater than 10 µM.
Consider `O=C(NCCC1CCCCC1)C1=Nc2ccc(I)cc2S(=O)(=O)N1` [Example 204], for which the IC50 is greater than 125 µM against MOF-KAT8 [9]; 0.122 µM against MOZ-KAT6A [3]; 59.5 µM against HBO-KAT7 [4]; greater than 125 µM on TIP60-KAT5 [5]; greater than 125 µM on QKF-KAT6B; greater than 40 µM in assay [11]. Also, the IC50 in [6] (Homo sapiens) was greater than 10 µM; against MOF-KAT8 [7], greater than 125 µM.
`Cc1cc(O)cc(C(CNC(=O)C2=Nc3ccc(Cl)cc3S(=O)(=O)N2)c2ncco2)c1` (stereo not shown) [Example 221, 7-Chloro-N-(2-(3-hydroxy-5-methylphenyl)-2-(oxazol-2-yl)ethyl)-2H-benzo[e][1,2,4]thiadiazine-3-carboxamide 1,1-dioxide]: the IC50 worked out at 0.572 µM on MOZ-KAT6A [3]; 0.072 µM at HBO-KAT7 [4]; 1.57 µM on TIP60-KAT5 [5]; 4.33 µM at QKF-KAT6B; 1.66 µM in assay [10]; 6.87 µM in assay [11]. The compound also gave an IC50 in assay [6] (Homo sapiens) greater than 10 µM.
On to `Cc1cccc(C(CNC(=O)C2=Nc3ccc(I)cc3S(=O)(=O)N2)c2ncco2)c1` (stereo not shown) [Example 233, 7-iodo-N-(2-(oxazol-2-yl)-2-(m-tolyl)ethyl)-2H-benzo[e][1,2,4]thiadiazine-3-carboxamide 1,1-dioxide], for which the IC50 at HBO-KAT7 [8] amounted to 0.038 µM; on MOF-KAT8 [9], 6.13 µM; against MOZ-KAT6A [3] it was 0.013 µM; against HBO-KAT7 [4], 0.014 µM; on TIP60-KAT5 [5], 0.154 µM; on QKF-KAT6B, 0.254 µM. Moreover, the IC50 in [10] is 3.2 µM; in assay [11], 1.99 µM; at MOF-KAT8 [7], 9.25 µM.
As for `O=C(NCC(F)(F)c1ccccc1)C1=Nc2ccc(I)cc2S(=O)(=O)N1` [Example 238, N-(2,2-difluoro-2-phenylethyl)-7-iodo-2H-benzo[e][1,2,4]thiadiazine-3-carboxamide 1,1-dioxide], the IC50 on MOF-KAT8 [9] was 41.4 µM; against MOZ-KAT6A [3], 0.188 µM; on HBO-KAT7 [4] it was 0.881 µM; against TIP60-KAT5 [5], 1.81 µM; on QKF-KAT6B it was 5.87 µM; in assay [10], 13.7 µM. On MOF-KAT8 [7], it took 25.6 µM to reach half-maximal inhibition (IC50).
